We go through five molecules from patent US7705189B2, “Calixarene compound, process for producing the same, intermediate therefor, and composition thereof” (JSR Corporation, priority 2004, dated 2010).

Each structure is given as a SMILES string.

One data set in a line: Solubility test (2 ml solvent added to 2 mg derivative). The class given is physicochemical.
Details: not given
The protocol:
A solubility test was carried out by adding 2 ml of each of the solvents shown in Table 4 to 2 mg of each of the derivatives listed in Table 4.
Consider `CC1=C2OCOc3c4cc5c(c3C)OCOc3c6cc7c(c3C)OCOc3c8cc9c(c3C)OCOc3c%10cc%11c(c3C)OCOc3c%12cc%13c(c3C)OCOc3c(cc%14c(c3C)OCOc3c%15cc%16c(c3C)OCOc3c(cc%17c(c3C)OCOc3c%18cc%19c(c3C)OCOc3c(cc%20c(c3C)OCOc3c(cc%21c(c3C)OCOC1=C(C=C2C4CCCC9%10)C%21CCCC%18%17)C%20CCCC56)C%19CCCC%15%14)C%16CCCC%11%12)C%13CCCC78` (stereo not drawn) [formula (33)], for which the “Solubility in acetone and methylene chloride” value was “dissolved in acetone and methylene chloride”.

A further data set is described as follows: Thermal characteristics by TG/DTA. Particulars: nitrogen atmosphere, temperature rise 10° C./min. The format is physicochemical. An excerpt: TG/DTA and DSC were used for the determination of the decomposition initiation temperature, 5% mass reduction temperature, and glass transition temperature of the derivatives shown in Table 3. The glass transition temperature could not be determined in any of the compounds. All compounds were confirmed to have high heat resistance. Comparison of T3 with T3-7 in which vinyl ether was deprotected and a spacer was introduced confirmed that there were almost no changes in the decomposition initiation temperature and 5% mass reduction temperature caused by introduction of the spacer. The lower decomposition initiation temperatures of these compounds as compared with other derivatives are due to their slight acidity resulting from the hydroxyl groups. […] T3-2a decomposed in two stages, that is, first the decomposition of phthalic acid ester bond and second the decomposition of the ester bond of methacryloyl groups.
Consider `C=C(C)C(=O)Oc1cc(OC(=O)C(=C)C)c2cc1C1CCCC3c4cc(c(OC(=O)C(=C)C)cc4OC(=O)C(=C)C)C4CCCC5c6cc(c(OC(=O)C(=C)C)cc6OC(=O)C(=C)C)C(CCCC6c7cc(c(OC(=O)C(=C)C)cc7OC(=O)C(=C)C)C(CCCC7c8cc(c(OC(=O)C(=C)C)cc8OC(=O)C(=C)C)C(CCCC(c8cc(c(OC(=O)C(=C)C)cc8OC(=O)C(=C)C)C(CCCC2c2cc4c(OC(=O)C(=C)C)cc2OC(=O)C(=C)C)c2cc7c(OC(=O)C(=C)C)cc2OC(=O)C(=C)C)c2cc1c(OC(=O)C(=C)C)cc2OC(=O)C(=C)C)c1cc6c(OC(=O)C(=C)C)cc1OC(=O)C(=C)C)c1cc5c(OC(=O)C(=C)C)cc1OC(=O)C(=C)C)c1cc3c(OC(=O)C(=C)C)cc1OC(=O)C(=C)C` [T3-1], for which the “First decomposition temperature: 5% mass decomposition temperature” value stood at 418 °C and the “First decomposition temperature: Decomposition initiation temperature” value came out at 387 °C.

In the case of `C=COCCOc1cc(OCCOC=C)c2cc1C1CCCC3c4cc(c(OCCOC=C)cc4OCCOC=C)C4CCCC5c6cc(c(OCCOC=C)cc6OCCOC=C)C(CCCC6c7cc(c(OCCOC=C)cc7OCCOC=C)C(CCCC7c8cc(c(OCCOC=C)cc8OCCOC=C)C(CCCC(c8cc(c(OCCOC=C)cc8OCCOC=C)C(CCCC2c2cc4c(OCCOC=C)cc2OCCOC=C)c2cc7c(OCCOC=C)cc2OCCOC=C)c2cc1c(OCCOC=C)cc2OCCOC=C)c1cc6c(OCCOC=C)cc1OCCOC=C)c1cc5c(OCCOC=C)cc1OCCOC=C)c1cc3c(OCCOC=C)cc1OCCOC=C` [T3-6], the “First decomposition temperature: 5% mass decomposition temperature” value turned out to be 365 °C and the “First decomposition temperature: Decomposition initiation temperature” value was 336 °C.

As for `OCCOc1cc(OCCO)c2cc1C1CCCC3c4cc(c(OCCO)cc4OCCO)C4CCCC5c6cc(c(OCCO)cc6OCCO)C(CCCC6c7cc(c(OCCO)cc7OCCO)C(CCCC7c8cc(c(OCCO)cc8OCCO)C(CCCC(c8cc(c(OCCO)cc8OCCO)C(CCCC2c2cc4c(OCCO)cc2OCCO)c2cc7c(OCCO)cc2OCCO)c2cc1c(OCCO)cc2OCCO)c1cc6c(OCCO)cc1OCCO)c1cc5c(OCCO)cc1OCCO)c1cc3c(OCCO)cc1OCCO` [T3-7], the “First decomposition temperature: 5% mass decomposition temperature” value was found to be 348 °C and the “First decomposition temperature: Decomposition initiation temperature” value was found to be 375 °C.

Take `Oc1cc(O)c2cc1C1CCCC3c4cc(c(O)cc4O)C4CCCC5c6cc(c(O)cc6O)C(CCCC6c7cc(c(O)cc7O)C(CCCC7c8cc(c(O)cc8O)C(CCCC(c8cc(c(O)cc8O)C(CCCC2c2cc4c(O)cc2O)c2cc7c(O)cc2O)c2cc1c(O)cc2O)c1cc6c(O)cc1O)c1cc5c(O)cc1O)c1cc3c(O)cc1O` [T3]: the “First decomposition temperature: 5% mass decomposition temperature” value is 365 °C and the “First decomposition temperature: Decomposition initiation temperature” value was determined as 333 °C.
